The values below come from patent US20090142269A1, “ISOTOYPICALLY-LABELED BENZOTHIAZOLE COMPOUNDS AS IMAGING AGENTS FOR AMYLOIDOGENIC PROTEINS” (UNIVERSITY OF OITTSBURGH-OF THE COMMONWEALTH SYSTEM OF …, priority 2005, published 2009).

pKi: −log10 of the molar value.

Tested on in one series: not listed separately
Briefly: Baboon brain entry study (PET time-activity curves). The class given is in vivo. The note with it: 40 kg baboon, 8 mCi intravenously, PET brain imaging over 2 h post injection. How it is done: A 40 kg baboon was anesthesized, immobilized, and placed on a ventilator. The baboon was positioned in a PET scanner to image the brain, and a transmission scan was performed to correct for attenuation. The baboon was injected intravenously with a solution containing 8 mCi of [F-18]-6-Methoxy-2-(4′-fluorophenyl)benzothiazole, and the brain was imaged in a series of increasing data collection time bins over 2 h post injection. Following data acquisition, the images were reconstructed and regions of interest were drawn. Decay and […] corrected time-activity curves (TAC) were generated for each of the regions to determine the quantitative time course of radioactivity in each brain region.
As for `COc1ccc2nc(-c3ccc([18F])cc3)sc2c1` [[F-18]-6-Methoxy-2-(4′-fluorophenyl)benzothiazole], the “brain penetration of the radiotracer” value is on record as “excellent brain penetration” and the “clearance of radioactivity from normal baboon brain” value is “rapid clearance”.

The target of the next series is T1, synthetic Aβ(1-40) (Homo sapiens, UniProt P05067).
T1 construct: analyzed, using synthetic Aβ(1-40)
T1 sequence (P05067 672-711): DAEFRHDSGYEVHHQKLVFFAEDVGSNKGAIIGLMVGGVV
As to the kind of experiment: Competition of [3H]BTA-1 binding from synthetic Aβ(1-40). The following applies: in vitro, aggregated amyloid. How it is done:
The characteristics of benzothiazole derivative binding were analyzed, using synthetic Aβ(1-40) and 2-(4′-[^3H]methylamino-phenyl)-benzothiazole ([^3H]BTA-1) in phosphate-buffered saline (pH 7.4), as previously described. Klunk et al., Life Sci. 69:1471 (2001); Mathis et al., Bioorg. Med. Chem. Lett. 12: 295 (2002).
The characteristics of benzothiazole derivative binding were analyzed using synthetic Aβ(1-40) and 2-(4′ [^3H]methylamino-phenyl)-benzothiazole ([^3H]BTA-1) in phosphate-buffered saline (pH 7.4), as previously described. Klunk et al., Life Sci. 69:1471 (2001); Mathis et al., Bioorg. Med. Chem. Lett., 12:295 (2002). The table below lists the inhibition constants (Ki) of exemplary benzothiazole compounds shown for competition of [^3H]BTA-1 binding from synthetic Aβ(1-40).
As for `COc1ccc2nc(-c3ccc([18F])cc3)sc2c1` [[F-18]-6-Methoxy-2-(4′-fluorophenyl)benzothiazole], the “affinity of the ligand in vitro for aggregated amyloid” value is on record as “relatively high affinity”.

Staying with this series, now noted: inhibition constant for competition of [3H]BTA-1 binding from synthetic Aβ(1-40), phosphate-buffered saline pH 7.4.
For the compound `COc1cc2nc(-c3ccc(F)cc3)sc2cc1OC`, the pKi was 7.05.

`COc1cc(OC)c2sc(-c3ccc(F)cc3)nc2c1` gave a pKi of 7.47.

As to `COc1ccc2nc(-c3ccc(F)cc3OC)sc2c1`, the negative logarithm of the Ki (pKi) was 7.78.

For the compound `COc1ccc2nc(-c3ccc(F)cc3)sc2c1`, the negative logarithm of the Ki (pKi) is 8.22.

On to `O=[N+]([O-])c1cc(F)ccc1-c1nc2ccccc2s1`, for which the pKi is 6.09.

Consider `Nc1cc(F)ccc1-c1nc2ccccc2s1`, for which the negative-log Ki (pKi) is 8.31.

`Oc1ccc2nc(-c3ccc(F)c(F)c3)sc2c1` showed a pKi of 7.72. Compared with the last compound, the pKi is 0.59 log units lower.

`FCCOc1ccc2nc(-c3ccc(F)cc3)sc2c1` showed a pKi of 8.01.

`Nc1cccc(F)c1-c1nc2ccc(O)cc2s1` showed a negative-log Ki (pKi) of 7.85.

As to `Oc1cccc2nc(-c3ccc(F)cc3)sc12`, the negative logarithm of the Ki (pKi) is 6.73.

Consider `OCc1ccc(-c2nc3ccc(O)cc3s2)cc1`, for which the negative-log Ki (pKi) was 6.51.

The compound `Nc1ccc(F)cc1-c1nc2ccc(O)cc2s1` had a negative logarithm of the Ki (pKi) of 7.66.

`Oc1ccc2nc(-c3ccc(F)cc3O)sc2c1` showed a negative logarithm of the Ki (pKi) of 7.50. This pKi and that of the compound before are within 0.2 log units of each other.

`CNc1cc(N)ccc1-c1nc2ccc(O)cc2s1` showed a pKi of 7.02.

Compound `COc1ccc2nc(-c3ccc(F)cc3O)sc2c1` had a pKi of 8.96.

The compound `CNc1ccc(-c2nc3ccccc3s2)cc1CCCF` showed a pKi of 7.11.

In turn, `CNc1ccc2nc(-c3ccc(F)cc3)sc2c1` gave a pKi of 8.13.

In the case of `Oc1ccc2nc(-c3ccc(F)c(Cl)c3)sc2c1`, the pKi was 6.89. This pKi is 1.24 log units lower than that of the compound before.

Consider `COc1ccc(OC)c2sc(-c3ccc(F)cc3)nc12`, for which the negative-log Ki (pKi) is 6.48.

For the compound `COc1cc(O)c2nc(-c3ccc(F)cc3)sc2c1`, the negative-log Ki (pKi) is 7.29.

`COc1cccc2sc(-c3ccc(F)cc3)nc12`: the pKi is 6.22.

Compound `Oc1ccc2sc(-c3ccc(F)cc3)nc2c1` showed a negative logarithm of the Ki (pKi) of 6.30.

Take `Oc1ccc2nc(-c3ccc(F)cc3)sc2c1`: the negative-log Ki (pKi) is 6.74.

`Nc1ccc2nc(-c3ccc(F)cc3)sc2c1` showed a pKi of 7.07.

Compound `Nc1c(F)c(F)c(-c2nc3ccc(O)cc3s2)c(F)c1F` had a negative logarithm of the Ki (pKi) of 6.00.

`Nc1ccccc1-c1nc2ccccc2s1` showed a pKi of 7.71.

`COc1ccc2sc(-c3ccc(F)cc3)nc2c1OC` had a pKi of 7.09.

`Nc1c(F)cccc1-c1nc2ccc(O)cc2s1` showed a pKi of 8.51.

`CNc1ccc2nc(-c3ccc(O)c(F)c3)sc2c1` showed a negative-log Ki (pKi) of 8.28.

`Brc1ccc(-c2nc3ccccc3s2)cc1` gave a pKi of 8.06.

In the case of `CNc1c(F)cccc1-c1nc2ccc(O)cc2s1`, the negative logarithm of the Ki (pKi) was 7.34. Compared with the last compound, the pKi is 0.72 log units lower.

For the compound `CNc1cc(F)ccc1-c1nc2ccc(O)cc2s1`, the pKi is 7.31.

The compound `COc1ccc(-c2nc3ccc(N(C)C)cc3s2)cc1` had a negative logarithm of the Ki (pKi) of 8.89. Compared with the last compound, the pKi is 1.58 log units higher.

The compound `CNc1c(F)c(F)c(-c2nc3ccc(O)cc3s2)c(F)c1F` had a negative-log Ki (pKi) of 6.56.

For `N#Cc1ccc2nc(-c3ccc(F)cc3)sc2c1`, the pKi was 6.88. This pKi lies 0.32 log units higher than the previous one.

The compound `CNc1ccc(-c2nc3ccc(O)cc3s2)c(N)c1` had a pKi of 8.27.

Regarding `COc1cc(OC)c2nc(-c3ccc(F)cc3)sc2c1`, the negative logarithm of the Ki (pKi) is 6.94.

Compound `COc1ccc2nc(-c3ccc(F)c(F)c3)sc2c1` gave a negative logarithm of the Ki (pKi) of 6.81.

Take `COc1ccc2sc(-c3ccc(F)cc3)nc2c1`: the pKi was 7.87.

For `COc1cccc2nc(-c3ccc(F)cc3)sc12`, the negative logarithm of the Ki (pKi) is 7.83.

For `CN(C)c1ccc2nc(-c3ccc(O)cc3)sc2c1`, the pKi was 7.97. The pKi values of the last two compounds are within 0.2 log units of each other.

As to `Ic1ccc(-c2nc3ccccc3s2)cc1`, the pKi was 8.59.

`Nc1cc(F)ccc1-c1nc2ccc(O)cc2s1` had a pKi of 7.83.

The compound `Oc1cccc2sc(-c3ccc(F)cc3)nc12` gave a pKi of 6.42.

With `Fc1ccc(-c2nc3ccccc3s2)cc1`, the negative-log Ki (pKi) is 7.36. This pKi lies 0.94 log units higher than the previous one.

Compound `Cc1ccc(-c2nc3ccccc3s2)cc1` gave a pKi of 7.72.

Compound `CNc1ccc(-c2nc3ccc(OCCOCCOCCF)cc3s2)cc1` gave a pKi of 8.31.

Compound `CNc1ccc2nc(-c3ccc(OC)cc3)sc2c1` gave a pKi of 8.74.

`CS(=O)(=O)c1ccc2nc(-c3ccc(F)cc3)sc2c1` had a negative-log Ki (pKi) of 5.90.

`CNc1ccc2nc(-c3ccc(O)cc3F)sc2c1` showed a pKi of 8.92.

For `CNc1c(F)c(F)c(-c2nc3ccc(OC)cc3s2)c(F)c1F`, the negative-log Ki (pKi) is 7.59.

The compound `Oc1ccc2nc(-c3ccc(CF)cc3)sc2c1` gave a pKi of 7.33.

`COc1ccc2nc(-c3c(F)c(F)c(N)c(F)c3F)sc2c1` gave a pKi of 6.92.

In the case of `FCCCOc1ccc2nc(-c3ccc(F)cc3)sc2c1`, the pKi is 7.57.

The term pKi denotes the Ki on a negative log10 scale, so that one unit is a factor of ten. The low end stands for a large Ki, the high end for a small Ki.
